Among the test systems are OVCAR-5; MDA-MB-231; OVCAR-4; T47D; SF-268; A549; NCI-H522; HL-60; BT-549; K562; SK-MEL-5; M14; HT-29; SK-OV-3; CAKI-1; ACHN; MOLT-4; U-251; NCI-H226; TK-10.
Common to all, as to test: DTP human tumour cell line panel, 48 h

SMILES strings stand for the structures.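 Cells were grown in 96-well plates and exposed to each compound for 48 hours at five concentrations; endpoints were interpolated linearly between bracketing concentrations, or set to the highest concentration if not reached. The concentration for 50% growth inhibition is given as GI50.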 Active and inactive are the calls of the source. Cut-off read from the data, not from the text of the source: active = GI50 up to about 1.1 µM and inactive = higher.

Take `COc1cc2c(c(OC)c1)C(=O)O[C@H](C)CCCC/C=C/C2`: the GI50 – broadly, the concentration that inhibits growth by half – with OVCAR-5 was 15.1 µM (inactive); with MDA-MB-231, 10.9 µM (inactive); in the assay with OVCAR-4, 12.1 µM (inactive); in the assay with T47D, 9.16 µM (inactive); with SF-268, 8.17 µM (inactive); with A549, 30.6 µM (inactive). Also, the GI50 is 8.09 µM (inactive) in the assay with NCI-H522; 0.824 µM (active) with HL-60; 13.4 µM (inactive) with BT-549; 6.24 µM (inactive) in the assay on K562; 5.71 µM (inactive) in the assay with SK-MEL-5; 12.7 µM (inactive) with M14. The GI50 with HT-29 was 35 µM (inactive); in the assay on SK-OV-3, 45.9 µM (inactive); in the assay on CAKI-1, 10.4 µM (inactive); in the assay with ACHN, 12.5 µM (inactive); in the assay on MOLT-4 it was 7.31 µM (inactive); in the assay on U-251, 9.79 µM (inactive). For the same compound, the GI50 with NCI-H226 was 45.6 µM (inactive); with TK-10, 15.8 µM (inactive).
`O=C(O)c1cccc(SSc2cccc(C(=O)O)c2)c1`: the GI50 with OVCAR-5, in the assay with MDA-MB-231, in the assay on OVCAR-4, with T47D, with SF-268 and in the assay on A549 was > 100 µM (inactive) in each case. Further, the GI50 in the assay on NCI-H522 is 58.1 µM (inactive); in the assay with HL-60, > 100 µM (inactive); in the assay on BT-549, > 100 µM (inactive); in the assay with K562, > 100 µM (inactive); in the assay with SK-MEL-5, > 100 µM (inactive); with M14 it was > 100 µM (inactive). For the same compound, the GI50 in the assay with HT-29, in the assay on SK-OV-3, in the assay on CAKI-1, with ACHN, in the assay with MOLT-4 and in the assay on U-251 was > 100 µM (inactive) in each case. The GI50 with NCI-H226 and in the assay with TK-10 was > 100 µM (inactive) each time.
On to `c1ccc(-c2c[nH]c(SC(c3ccccc3)c3ccccc3)n2)cc1`, for which the GI50 is 55.7 µM (inactive) in the assay on OVCAR-5; 58.6 µM (inactive) with MDA-MB-231; 23.4 µM (inactive) in the assay on OVCAR-4; 8.95 µM (inactive) with T47D; 43.8 µM (inactive) in the assay on SF-268; 21.9 µM (inactive) in the assay with A549. In addition, the GI50 is 17.1 µM (inactive) with NCI-H522; 11.1 µM (inactive) with HL-60; 25.1 µM (inactive) in the assay on BT-549; 12.7 µM (inactive) with K562; 12.4 µM (inactive) in the assay on SK-MEL-5; 30.8 µM (inactive) in the assay on M14. The GI50 is 10.9 µM (inactive) in the assay on HT-29; 46.9 µM (inactive) in the assay with SK-OV-3; 13.8 µM (inactive) in the assay with CAKI-1; 24.5 µM (inactive) in the assay on ACHN; 15.7 µM (inactive) in the assay on MOLT-4; 15 µM (inactive) with U-251. For the same compound, the GI50 was 17.3 µM (inactive) in the assay on NCI-H226 and 21.1 µM (inactive) in the assay with TK-10.
Turning to `Cc1ccc(S(=O)(=O)N/C(=N\O)Nc2ccc(Cl)c(Cl)c2)cc1`, the GI50 in the assay with OVCAR-5 is 3.2 µM (inactive); in the assay with MDA-MB-231, 9.98 µM (inactive); with OVCAR-4 it was 6.46 µM (inactive); in the assay on T47D, 11.4 µM (inactive); with SF-268 it was 6.01 µM (inactive); with A549, 13.3 µM (inactive). Moreover, the GI50 in the assay on NCI-H522 is 4.47 µM (inactive); in the assay on HL-60, 1.87 µM (inactive); in the assay with BT-549, 9.64 µM (inactive); with K562, 13 µM (inactive); in the assay with SK-MEL-5 it was 2.05 µM (inactive); in the assay on M14, 5.58 µM (inactive). In addition, the GI50 in the assay on HT-29 is 12.8 µM (inactive); in the assay on SK-OV-3, 15 µM (inactive); with CAKI-1, 5.41 µM (inactive); in the assay on ACHN it was 11.9 µM (inactive); in the assay with MOLT-4, 1.98 µM (inactive); in the assay with U-251, 4.36 µM (inactive). The values for the GI50 in the assay on NCI-H226 and with TK-10 were 17.1 µM (inactive) and 14.6 µM (inactive), respectively.
As for `OC1c2c(ccc3c2CCC3)CC12Cc1ccccc1C2` (stereo not given), the GI50 is 17.2 µM (inactive) with OVCAR-5; 15.2 µM (inactive) in the assay on MDA-MB-231; 16.4 µM (inactive) with OVCAR-4; 16.5 µM (inactive) in the assay with T47D; 14.7 µM (inactive) in the assay with SF-268; 17.1 µM (inactive) with A549. Further, the GI50 in the assay with NCI-H522 was 16.3 µM (inactive); in the assay on HL-60, 15.9 µM (inactive); in the assay on BT-549 it was 16.9 µM (inactive); in the assay with K562, 17.1 µM (inactive); in the assay with SK-MEL-5, 15.6 µM (inactive); in the assay with M14 it was 15.3 µM (inactive). Besides, the GI50 in the assay with HT-29 is 17 µM (inactive); in the assay on SK-OV-3 it was 15.7 µM (inactive); in the assay with CAKI-1 it was 16.7 µM (inactive); in the assay on ACHN it was 16.8 µM (inactive); with MOLT-4, 26.6 µM (inactive); with U-251, 15.9 µM (inactive). Also, the values for the GI50 in the assay with NCI-H226 and in the assay with TK-10 were 13.4 µM (inactive) and 14.8 µM (inactive), respectively.
Turning to `Nc1ncnc2c1ccn2CC=C(CO)CO`, the GI50 in the assay on OVCAR-5, in the assay with MDA-MB-231, in the assay on OVCAR-4, with T47D, in the assay on SF-268 and in the assay on A549 was > 100 µM (inactive) in each case. In addition, the GI50 in the assay with NCI-H522, in the assay with HL-60, with BT-549, with K562, in the assay on SK-MEL-5 and in the assay on M14 was > 100 µM (inactive) in each case. Further, the GI50 in the assay with HT-29, in the assay with SK-OV-3, with CAKI-1, in the assay on ACHN, with MOLT-4 and with U-251 was > 100 µM (inactive) each time. The GI50 in the assay with NCI-H226 was 8.07 µM (inactive); with TK-10, > 100 µM (inactive).
For `Clc1ccc(CSCc2ccc(Cl)cc2Cl)c(Cl)c1`, the GI50 was > 100 µM (inactive) in the assay with OVCAR-5; > 100 µM (inactive) in the assay on MDA-MB-231; 36.4 µM (inactive) in the assay with OVCAR-4; 22.5 µM (inactive) in the assay with T47D; 71 µM (inactive) in the assay on SF-268; 34.3 µM (inactive) in the assay on A549. The GI50 in the assay on NCI-H522 was 24.8 µM (inactive); with HL-60, 39.7 µM (inactive); in the assay on BT-549, 97.5 µM (inactive); in the assay with K562 it was 57.5 µM (inactive); in the assay with SK-MEL-5 it was 29.9 µM (inactive); with M14 it was 79.8 µM (inactive). In addition, the GI50 is 29.9 µM (inactive) in the assay on HT-29; > 100 µM (inactive) in the assay on SK-OV-3; 86.1 µM (inactive) with CAKI-1; > 100 µM (inactive) with ACHN; 19.4 µM (inactive) in the assay with MOLT-4; 54 µM (inactive) with U-251. Moreover, the GI50 with NCI-H226 and with TK-10 was > 100 µM (inactive) in each case.
In the case of `C[C@]12C=CC(=O)C=C1[C@@H](F)C[C@H]1[C@@H]3CC[C@](O)(C(=O)CO)[C@@]3(C)C[C@H](O)[C@@]12F`, the GI50 was > 59.6 µM (inactive) in the assay with OVCAR-5; > 100 µM (inactive) in the assay on MDA-MB-231; > 100 µM (inactive) with OVCAR-4; > 100 µM (inactive) with T47D; > 100 µM (inactive) with SF-268; > 100 µM (inactive) in the assay on A549. Also, the GI50 with NCI-H522, in the assay with HL-60, in the assay with BT-549, with K562, in the assay with SK-MEL-5 and in the assay on M14 was > 100 µM (inactive) throughout. The GI50 was > 100 µM (inactive) with HT-29; 3.33 µM (inactive) with SK-OV-3; > 100 µM (inactive) in the assay on CAKI-1; > 100 µM (inactive) in the assay on ACHN; > 100 µM (inactive) with MOLT-4; > 100 µM (inactive) with U-251. The figures for the GI50 in the assay on NCI-H226 and with TK-10 were 52.6 µM (inactive) and > 100 µM (inactive), respectively.
Take `NC(=O)NC(=O)c1cccc(NC(=O)CBr)c1`: the GI50 was < 0.0204 µM (active) in the assay on OVCAR-5; 0.0631 µM (active) in the assay with MDA-MB-231; 0.0706 µM (active) in the assay with OVCAR-4; 1.42 µM (inactive) with T47D; < 0.0158 µM (active) with SF-268; 0.912 µM (active) with A549. Besides, the GI50 in the assay with NCI-H522 is < 0.01 µM (active); in the assay on HL-60 it was < 0.01 µM (active); in the assay with BT-549, < 0.02 µM (active); in the assay with K562, < 0.01 µM (active); in the assay on SK-MEL-5 it was < 0.0119 µM (active); with M14, 0.198 µM (active). Moreover, the GI50 in the assay with HT-29 was < 0.0168 µM (active); with SK-OV-3, 0.0272 µM (active); in the assay with CAKI-1 it was < 0.01 µM (active); in the assay with ACHN it was < 0.0209 µM (active); in the assay on MOLT-4, < 0.01 µM (active); in the assay with U-251, < 0.018 µM (active). For the same compound, the GI50 is < 0.0188 µM (active) with NCI-H226 and < 0.0231 µM (active) with TK-10.
Turning to `O=c1oc2ccc3ccccc3c2cc1-c1nc2ccc([N+](=O)[O-])cc2o1`, the GI50 is > 100 µM (inactive) with OVCAR-5; 43.6 µM (inactive) in the assay on MDA-MB-231; 22.5 µM (inactive) with OVCAR-4; 66.8 µM (inactive) in the assay on T47D; 20.5 µM (inactive) in the assay with SF-268; 14.7 µM (inactive) with A549. Further, the GI50 with NCI-H522 is 18.9 µM (inactive); with HL-60 it was 34.7 µM (inactive); with BT-549, > 44.5 µM (inactive); with K562, > 62.1 µM (inactive); in the assay with SK-MEL-5 it was 10.3 µM (inactive); with M14 it was 25.5 µM (inactive). Further, the GI50 in the assay with HT-29 is > 42.7 µM (inactive); in the assay on SK-OV-3 it was > 30.4 µM (inactive); in the assay on CAKI-1, > 44.7 µM (inactive); in the assay with ACHN, 8.57 µM (inactive); in the assay with MOLT-4 it was > 67.6 µM (inactive); in the assay with U-251, 28.7 µM (inactive). The GI50 in the assay on NCI-H226 is > 51.2 µM (inactive); with TK-10, 28.3 µM (inactive).

Source of the values: ChEMBL document CHEMBL1201862, “PubChem BioAssay data set” (2004).
